According to the kinase profiling compilation of Christmann-Franck et al. (2016):
“And” between values parts separate entries of the source, which are not always exact repeats. Identical values can stand only once.

Experiments:
Experiment in all cases: radiometric filter-binding kinase assay, Kinase HotSpot
Conditions in all cases: compound 0.5 µM; ATP 10 µM
FGFR2 (human) = FGFR2 (human) (UniProt P21802)
STK10 (human) = STK10 (human) (UniProt O94804)
CSK (human) = CSK (human) (UniProt P41240)
TYRO3 (human) = TYRO3 (human) (UniProt Q06418)
JAK3 JH1 JH2 (human) = JAK3 JH1 JH2 (human) (UniProt P52333)
CHEK2 (human) = CHEK2 (human) (UniProt O96017)
EPHA5 (human) = EPHA5 (human) (UniProt P54756)
LYN (human) = LYN (human) (UniProt P07948)
CDK6 CCND3 (human) = CDK6 CCND3 (human) (UniProt P30281+Q00534)
PKN1 (human) = PKN1 (human) (UniProt Q16512)
GRK7 (human) = GRK7 (human) (UniProt Q8WTQ7)
MAPK12 (human) = MAPK12 (human) (UniProt P53778)
MLTK (human) = MLTK (human) (UniProt Q9NYL2)
EPHB4 (human) = EPHB4 (human) (UniProt P54760)
MYLK (human) = MYLK (human) (UniProt Q15746)
RPS6KA2 KD1 KD2 (human) = RPS6KA2 KD1 KD2 (human) (UniProt Q15349)
HIPK1 (human) = HIPK1 (human) (UniProt Q86Z02)
MST1R (human) = MST1R (human) (UniProt Q04912)
CSNK2A1 (human) = CSNK2A1 (human) (UniProt P68400)
MAP3K8 (human) = MAP3K8 (human) (UniProt P41279)
DMPK (human) = DMPK (human) (UniProt Q09013)
GSK3B (human) = GSK3B (human) (UniProt P49841)
PLK1 (human) = PLK1 (human) (UniProt P53350)
FER (human) = FER (human) (UniProt P16591)
GRK4 (human) = GRK4 (human) (UniProt P32298)
DYRK2 (human) = DYRK2 (human) (UniProt Q92630)
RPS6KA4 KD2 (human) = RPS6KA4 KD2 (human) (UniProt O75676)
STK3 (human) = STK3 (human) (UniProt Q13188)
NEK3 (human) = NEK3 (human) (UniProt P51956)
MARK2 (human) = MARK2 (human) (UniProt Q7KZI7)
DAPK3 (human) = DAPK3 (human) (UniProt O43293)
BTK (human) = BTK (human) (UniProt Q06187)
SRC (human) = SRC (human) (UniProt P12931)
BMX (human) = BMX (human) (UniProt P51813)
SGK2 (human) = SGK2 (human) (UniProt Q9HBY8)
PNCK (human) = PNCK (human) (UniProt Q6P2M8)
PRKG1 (human) = PRKG1 (human) (UniProt Q13976)
AURKA (human) = AURKA (human) (UniProt O14965)
IRAK4 (human) = IRAK4 (human) (UniProt Q9NWZ3)
FGFR4 (human) = FGFR4 (human) (UniProt P22455)

Sequence of MARK2 (human) (Q7KZI7 whole entry, looked up): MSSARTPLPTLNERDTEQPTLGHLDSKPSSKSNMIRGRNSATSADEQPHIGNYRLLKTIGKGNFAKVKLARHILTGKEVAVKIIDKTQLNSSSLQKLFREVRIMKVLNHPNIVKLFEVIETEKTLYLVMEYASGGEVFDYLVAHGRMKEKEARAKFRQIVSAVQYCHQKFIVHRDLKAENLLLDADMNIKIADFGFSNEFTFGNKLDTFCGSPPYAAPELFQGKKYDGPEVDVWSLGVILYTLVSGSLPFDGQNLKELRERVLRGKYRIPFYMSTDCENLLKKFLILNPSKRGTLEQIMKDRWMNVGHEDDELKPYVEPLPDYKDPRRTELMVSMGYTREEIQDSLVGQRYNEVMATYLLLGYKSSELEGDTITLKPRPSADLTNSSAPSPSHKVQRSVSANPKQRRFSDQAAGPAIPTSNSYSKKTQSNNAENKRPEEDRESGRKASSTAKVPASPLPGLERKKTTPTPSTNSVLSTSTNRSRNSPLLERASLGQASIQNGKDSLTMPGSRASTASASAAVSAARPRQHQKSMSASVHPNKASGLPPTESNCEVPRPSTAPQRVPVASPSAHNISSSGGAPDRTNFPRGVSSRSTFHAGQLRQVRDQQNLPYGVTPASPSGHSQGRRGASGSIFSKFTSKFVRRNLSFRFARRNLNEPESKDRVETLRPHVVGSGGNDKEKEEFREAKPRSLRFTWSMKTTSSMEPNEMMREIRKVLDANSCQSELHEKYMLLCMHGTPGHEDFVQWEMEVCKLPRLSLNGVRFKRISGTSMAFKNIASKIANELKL
Sequence of SGK2 (human) (Q9HBY8 whole entry, looked up): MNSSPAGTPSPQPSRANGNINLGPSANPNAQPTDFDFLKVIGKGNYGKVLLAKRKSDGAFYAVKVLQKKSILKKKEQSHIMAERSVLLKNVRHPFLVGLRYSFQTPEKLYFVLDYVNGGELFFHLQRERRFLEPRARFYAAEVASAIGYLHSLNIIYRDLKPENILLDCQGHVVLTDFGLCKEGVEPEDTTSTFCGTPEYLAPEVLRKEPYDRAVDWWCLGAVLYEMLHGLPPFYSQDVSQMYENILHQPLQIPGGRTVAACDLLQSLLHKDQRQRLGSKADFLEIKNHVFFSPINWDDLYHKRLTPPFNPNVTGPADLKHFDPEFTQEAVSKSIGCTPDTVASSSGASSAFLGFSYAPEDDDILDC
Sequence of STK10 (human) (O94804 whole entry, looked up): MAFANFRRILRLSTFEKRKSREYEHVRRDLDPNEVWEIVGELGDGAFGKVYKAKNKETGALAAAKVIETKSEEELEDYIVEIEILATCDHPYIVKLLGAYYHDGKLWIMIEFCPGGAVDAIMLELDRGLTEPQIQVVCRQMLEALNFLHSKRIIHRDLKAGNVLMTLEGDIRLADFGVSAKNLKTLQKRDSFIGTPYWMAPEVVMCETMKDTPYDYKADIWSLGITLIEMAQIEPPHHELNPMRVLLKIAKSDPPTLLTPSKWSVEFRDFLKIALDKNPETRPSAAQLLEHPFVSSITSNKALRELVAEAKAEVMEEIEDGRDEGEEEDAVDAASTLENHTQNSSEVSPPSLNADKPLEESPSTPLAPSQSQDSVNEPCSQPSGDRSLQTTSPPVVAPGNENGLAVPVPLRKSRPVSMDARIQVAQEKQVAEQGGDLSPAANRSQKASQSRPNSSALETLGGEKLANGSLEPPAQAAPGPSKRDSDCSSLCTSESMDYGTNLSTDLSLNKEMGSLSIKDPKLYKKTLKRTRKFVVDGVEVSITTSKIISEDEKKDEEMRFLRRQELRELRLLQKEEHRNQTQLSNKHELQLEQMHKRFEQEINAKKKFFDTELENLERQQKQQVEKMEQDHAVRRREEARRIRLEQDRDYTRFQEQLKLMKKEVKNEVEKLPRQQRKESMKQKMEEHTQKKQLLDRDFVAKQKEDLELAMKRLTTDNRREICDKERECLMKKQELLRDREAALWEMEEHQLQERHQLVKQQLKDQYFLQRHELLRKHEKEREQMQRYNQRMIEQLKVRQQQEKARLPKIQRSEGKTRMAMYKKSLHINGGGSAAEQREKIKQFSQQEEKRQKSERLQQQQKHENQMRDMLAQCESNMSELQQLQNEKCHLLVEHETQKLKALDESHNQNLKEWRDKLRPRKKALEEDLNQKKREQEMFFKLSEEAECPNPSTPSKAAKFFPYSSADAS
Sequence of NEK3 (human) (P51956 whole entry, looked up): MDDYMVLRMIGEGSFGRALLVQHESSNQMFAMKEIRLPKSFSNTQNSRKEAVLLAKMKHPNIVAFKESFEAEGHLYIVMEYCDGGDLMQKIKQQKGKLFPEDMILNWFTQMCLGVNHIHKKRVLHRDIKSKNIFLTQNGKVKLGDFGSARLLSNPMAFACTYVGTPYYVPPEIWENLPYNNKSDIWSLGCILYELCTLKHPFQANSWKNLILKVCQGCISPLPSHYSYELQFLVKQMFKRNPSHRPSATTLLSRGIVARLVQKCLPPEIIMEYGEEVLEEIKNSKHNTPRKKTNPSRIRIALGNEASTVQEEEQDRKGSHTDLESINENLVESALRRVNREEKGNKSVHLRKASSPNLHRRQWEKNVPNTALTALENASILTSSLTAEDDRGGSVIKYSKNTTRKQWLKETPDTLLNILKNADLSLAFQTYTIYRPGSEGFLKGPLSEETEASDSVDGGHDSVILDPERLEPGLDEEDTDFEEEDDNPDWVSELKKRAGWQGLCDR
Sequence of GSK3B (human) (P49841 whole entry, looked up): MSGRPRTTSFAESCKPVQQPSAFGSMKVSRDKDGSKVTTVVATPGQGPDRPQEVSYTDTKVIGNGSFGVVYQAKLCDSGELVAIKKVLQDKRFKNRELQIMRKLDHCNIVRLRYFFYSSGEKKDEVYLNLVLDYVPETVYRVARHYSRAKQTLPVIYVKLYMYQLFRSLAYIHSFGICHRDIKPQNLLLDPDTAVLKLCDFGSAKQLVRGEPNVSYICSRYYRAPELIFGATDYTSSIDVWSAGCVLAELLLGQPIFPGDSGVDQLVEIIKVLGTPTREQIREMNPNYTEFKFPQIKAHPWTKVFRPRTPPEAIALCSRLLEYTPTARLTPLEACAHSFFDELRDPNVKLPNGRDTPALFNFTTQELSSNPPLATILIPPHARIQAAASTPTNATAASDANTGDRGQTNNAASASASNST
Sequence of MST1R (human) (Q04912 whole entry, looked up): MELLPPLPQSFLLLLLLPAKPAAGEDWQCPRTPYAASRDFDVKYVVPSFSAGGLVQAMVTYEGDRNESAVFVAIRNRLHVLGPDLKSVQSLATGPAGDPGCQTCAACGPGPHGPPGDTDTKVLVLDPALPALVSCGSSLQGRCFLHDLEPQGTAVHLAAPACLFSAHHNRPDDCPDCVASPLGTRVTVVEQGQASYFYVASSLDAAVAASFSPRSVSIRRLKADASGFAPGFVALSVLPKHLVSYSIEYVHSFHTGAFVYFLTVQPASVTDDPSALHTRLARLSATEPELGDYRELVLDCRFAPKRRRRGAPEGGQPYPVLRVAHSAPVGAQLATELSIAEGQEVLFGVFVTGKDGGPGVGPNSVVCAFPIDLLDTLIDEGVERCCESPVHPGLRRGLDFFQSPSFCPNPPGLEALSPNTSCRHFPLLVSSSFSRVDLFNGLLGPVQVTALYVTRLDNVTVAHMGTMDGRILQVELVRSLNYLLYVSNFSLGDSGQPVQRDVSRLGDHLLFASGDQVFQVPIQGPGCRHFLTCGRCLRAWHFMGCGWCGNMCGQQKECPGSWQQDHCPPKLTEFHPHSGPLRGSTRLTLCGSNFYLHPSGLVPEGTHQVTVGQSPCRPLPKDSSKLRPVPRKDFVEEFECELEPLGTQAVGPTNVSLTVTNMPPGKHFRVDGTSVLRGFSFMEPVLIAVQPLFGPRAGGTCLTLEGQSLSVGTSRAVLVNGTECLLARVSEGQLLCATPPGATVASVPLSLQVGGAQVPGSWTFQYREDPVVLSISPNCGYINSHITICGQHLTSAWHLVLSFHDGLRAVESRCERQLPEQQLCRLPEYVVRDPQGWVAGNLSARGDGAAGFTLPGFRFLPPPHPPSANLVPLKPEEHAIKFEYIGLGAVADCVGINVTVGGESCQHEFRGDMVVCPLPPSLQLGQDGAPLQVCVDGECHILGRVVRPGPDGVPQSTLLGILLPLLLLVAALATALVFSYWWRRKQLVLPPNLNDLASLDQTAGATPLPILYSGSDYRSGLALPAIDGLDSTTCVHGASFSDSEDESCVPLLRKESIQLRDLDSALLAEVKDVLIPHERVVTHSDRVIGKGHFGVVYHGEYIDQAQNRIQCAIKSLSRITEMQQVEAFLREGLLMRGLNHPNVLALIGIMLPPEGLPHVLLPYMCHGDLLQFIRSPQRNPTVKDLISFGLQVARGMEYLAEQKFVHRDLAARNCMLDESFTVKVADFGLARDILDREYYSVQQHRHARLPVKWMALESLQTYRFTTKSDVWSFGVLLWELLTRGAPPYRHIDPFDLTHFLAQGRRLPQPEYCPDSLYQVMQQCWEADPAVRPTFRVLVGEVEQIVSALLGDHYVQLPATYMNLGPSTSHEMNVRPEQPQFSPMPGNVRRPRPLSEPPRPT
Sequence of DAPK3 (human) (O43293 whole entry, looked up): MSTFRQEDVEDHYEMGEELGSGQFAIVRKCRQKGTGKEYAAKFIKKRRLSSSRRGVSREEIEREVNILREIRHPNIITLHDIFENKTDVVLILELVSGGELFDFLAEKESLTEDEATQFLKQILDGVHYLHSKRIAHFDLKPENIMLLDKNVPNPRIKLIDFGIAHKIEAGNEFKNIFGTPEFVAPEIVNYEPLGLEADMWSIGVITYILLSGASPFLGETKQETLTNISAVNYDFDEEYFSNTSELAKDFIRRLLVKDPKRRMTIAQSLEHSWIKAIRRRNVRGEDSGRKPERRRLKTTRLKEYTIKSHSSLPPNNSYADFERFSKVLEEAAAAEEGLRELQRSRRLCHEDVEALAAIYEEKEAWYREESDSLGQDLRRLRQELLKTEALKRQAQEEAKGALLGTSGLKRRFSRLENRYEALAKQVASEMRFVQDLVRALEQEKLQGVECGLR

Row | Structure (SMILES) | residual activity (FGFR2 (human)) [%] | residual activity (STK10 (human)) [%] | residual activity (CSK (human)) [%] | residual activity (TYRO3 (human)) [%] | residual activity (JAK3 JH1 JH2 (human)) [%] | residual activity (CHEK2 (human)) [%] | residual activity (EPHA5 (human)) [%] | residual activity (LYN (human)) | residual activity (CDK6 CCND3 (human)) [%] | residual activity (PKN1 (human)) [%] | residual activity (GRK7 (human)) [%] | residual activity (MAPK12 (human)) [%] | residual activity (MLTK (human)) [%] | residual activity (EPHB4 (human)) [%] | residual activity (MYLK (human)) [%] | residual activity (RPS6KA2 KD1 KD2 (human)) [%] | residual activity (HIPK1 (human)) [%] | residual activity (MST1R (human)) [%] | residual activity (CSNK2A1 (human)) [%] | residual activity (MAP3K8 (human)) [%] | also measured
1 | CCN(CC)C(=O)c1ccc(Nc2nc(OCC3CCCCC3)c3nc[nH]c3n2)cc1 | 76.6 | 57.3 | 83.1 | 90.4 | 6.39 | 71.3 | 95 | 78.2% and 89.7% | 47.2 | 78.9 | 103 | 99.4 | 91.4 | 85 | 91.6 | 30.9 | 104 | 103 | 87.4 | 101 | residual activity (DMPK (human)): 105%; residual activity (GSK3B (human)): 85%; residual activity (PLK1 (human)): 91.4%; residual activity (FER (human)): 42%; residual activity (GRK4 (human)): 93%; residual activity (DYRK2 (human)): 98.2%; residual activity (RPS6KA4 KD2 (human)): 79.8%; residual activity (STK3 (human)): 62.1%; residual activity (NEK3 (human)): 69.4%; residual activity (MARK2 (human)): 75.3%; residual activity (DAPK3 (human)): 98.4%; residual activity (BTK (human)): 37.1%; residual activity (SRC (human)): 72.8%; residual activity (BMX (human)): 42.9%; residual activity (SGK2 (human)): 94.4%; residual activity (PNCK (human)): 117%; residual activity (PRKG1 (human)): 89.8% and 96.1%; residual activity (AURKA (human)): 3.03%; residual activity (IRAK4 (human)): 92.4%; residual activity (FGFR4 (human)): 94.4%
2 | Cc1ccc(NC2=CC(=O)c3sc(C)nc3C2=O)cc1 | 91 | 95 | 102 | 95.3 | 97.4 | 100 | 98.2 | 106% and 95.4% | 99.6 | 98.9 | 101 | 99.3 | 94 | 89.7 | 90.1 | 82.5 | 96.7 | 88.9 | 98.2 | 90.2 | residual activity (DMPK (human)): 103%; residual activity (GSK3B (human)): 82%; residual activity (PLK1 (human)): 86.8%; residual activity (FER (human)): 83.9%; residual activity (GRK4 (human)): 93.1%; residual activity (DYRK2 (human)): 109%; residual activity (RPS6KA4 KD2 (human)): 88.4%; residual activity (STK3 (human)): 105%; residual activity (NEK3 (human)): 88.2%; residual activity (MARK2 (human)): 91.1%; residual activity (DAPK3 (human)): 104%; residual activity (BTK (human)): 99.2%; residual activity (SRC (human)): 79.6%; residual activity (BMX (human)): 100%; residual activity (SGK2 (human)): 94.6%; residual activity (PNCK (human)): 95.3%; residual activity (PRKG1 (human)): 104% and 96.3%; residual activity (AURKA (human)): 110%; residual activity (IRAK4 (human)): 124%; residual activity (FGFR4 (human)): 86.7%
3 | CC[n+]1c(/C=C/N(C)c2ccccc2)n(-c2ccccc2)c2ccc(-c3nc4ccccc4s3)cc21 | 100 | 101 | 100 | 103 | 106 | 105 | 100 | 100% and 110% | 92.2 | 85.7 | 100 | 105 | 93.8 | 103 | 98.4 | 101 | 99.5 | 94.4 | 96.8 | 92 | residual activity (DMPK (human)): 93.9%; residual activity (GSK3B (human)): 105%; residual activity (PLK1 (human)): 110%; residual activity (FER (human)): 98.9%; residual activity (GRK4 (human)): 103%; residual activity (DYRK2 (human)): 105%; residual activity (RPS6KA4 KD2 (human)): 94.6%; residual activity (STK3 (human)): 98.9%; residual activity (NEK3 (human)): 102%; residual activity (MARK2 (human)): 91.6%; residual activity (DAPK3 (human)): 95.4%; residual activity (BTK (human)): 91.6%; residual activity (SRC (human)): 94.5%; residual activity (BMX (human)): 108%; residual activity (SGK2 (human)): 123%; residual activity (PNCK (human)): 114%; residual activity (PRKG1 (human)): 104% and 105%; residual activity (AURKA (human)): 88.1%; residual activity (IRAK4 (human)): 173%; residual activity (FGFR4 (human)): 84.1%
